The text below walks through data of publication PMC2813863, “In Vivo Evaluation of α7 Nicotinic Acetylcholine Receptor Agonists [^11C]A-582941 and [^11C]A-844606 in Mice and Conscious Monkeys” (PLoS ONE, 2010).

The format of data set [1] is in vivo, mice. Particulars: mouse, in vivo, iv. The procedure:
Each tracer was intravenously injected into mice, and then the animals were killed by cervical dislocation at 1, 5, 15, 30 and 60 min after injection (n = 4). The body weight of the mice was 34.7±1.2 g. The injected doses of tracers were 2 MBq/0.049–0.051 nmol. Blood was collected by heart puncture and tissues were harvested. The carbon-11 in the samples was counted with an auto-gamma-counter (LKB Wallac Compu-gamma 1282CS, Turku, Finland) and the tissues were weighed. The tissue uptake of carbon-11 was expressed as the %ID/g.

Data set [2] deals with α7 nAChRs (Macaca mulatta, UniProt Q866A2). The following applies: rhesus monkey, in vivo. The source says:
Four young-adult male rhesus monkeys (Macaca mulatta) weighing from 4 to 6 kg were used for PET measurements. The monkeys were trained for the protocol as described previously. The magnetic resonance images (MRI) of all monkeys were obtained with a Toshiba MRT-50A/II (0.5T) under anesthesia with pentobarbital. The stereotactic coordinates of PET and MRI were adjusted based on the orbitomeatal (OM) line with monkeys secured in a specially designed head holder. At least 1 month before the PET study, an acrylic plate, with which the monkey was fixed to the monkey chair, was attached to the head under pentobarbital anesthesia as described previously.
PET data were collected on a high-resolution PET scanner (SHR-7700; Hamamatsu Photonics K.K., Hamamatsu, Japan). The camera consists of 16 detector rings and acquires 20 slices at a center-to-center interval of 3.6 mm with a transaxial resolution of 2.6 mm full width at half maximum. After an overnight fast, the monkey was fixed to the monkey chair with stereotactic coordinates aligned parallel to the OM line. A cannula was implanted in the posterior tibial vein, and [^11C]A-582941 or [^11C]A-844606 (1152–1336 MBq/26.8–63.1 nmol) was injected into the monkey through the venous cannula. PET images were acquired over 91 min (10 sec ×6 frames, 30 sec ×6 frames, 1 min ×12 frames, and 3 min ×25 frames). PET scans were reconstructed using a filtered backprojection method in a 100×100 matrix, with a voxel size of 1.2 mm ×1.2 mm ×3.6 mm. Summed image of late phase (from 70 to 91 min post-injection) was calculated as a static SUV (activity/ml tissue)/(injected activity/g body weight) image. Each MRI was coregistered to an early (from 0 to 20 min) summed image using normalized mutual information, and ROIs were placed on the summed image with reference to the coregistered MRI. Three monkeys underwent [^11C]A-582941 scan morning, and then two of the three monkeys underwent [^11C]A-844606 afternoon (baseline). Within 6 months the last one of the three monkeys underwent two [^11C]A-844606 scans in the baseline (morning) and blocking (afternoon) conditions 30 min after injection of SSR180711 (5.0 mg/kg, i.v.), and the fourth monkey underwent two [^11C]A-582941 scans in the baseline and blocking conditions in the same way.
For the semi-quantitative analysis of PET data, arterial samples were obtained every 8 sec from injection to 64 sec, and then again at 1.5, 2.5, 4, 6, 10, 20, 30, 45, 60, and 90 min after each tracer injection. Blood samples were centrifuged to separate the plasma, weighed, and subjected to radioactivity measurement. For metabolite analysis, methanol was added to some plasma samples, the resulting solutions were centrifuged, and the supernatants were developed with TLC plates (AL SIL G/UV; Whatman, Kent, UK) using a mobile phase of dichloromethane/diethyl ether/ethanol/triethylamine (20/20/2/2, v/v/v/v). At each sampling time point, the ratio of radioactivity in the unmetabolized fraction to that in the total plasma (metabolite plus unmetabolite) was determined using a phosphoimaging plate (BAS-1500 MAC; Fuji Film Co., Tokyo, Japan). The pTACs corrected for metabolite were obtained. The tTACs in each region of interest (ROI) in the brain were calculated as the %ID/ml or as a standardized uptake value (SUV), (activity/ml tissue)/(injected activity/g body weight). Using the tTACs and the metabolite-corrected pTAC, the V T for each tracer was evaluated by Logan graphical analysis.

The target in data set [3] is α7 nAChRs (Mus musculus, UniProt P49582). The following applies: in vivo. The procedure:
In the other group of mice, a blocking experiment to determine the α7 nAChRs-specific regional brain uptake of the tracers was carried out. Each tracer (2 MBq/0.055–0.096 nmol) was co-injected with each of the following blockers into mice, and 15 ([^11C]A-582941) or 30 ([^11C]A-844606) min later the mice were killed (n = 5) and the tissue uptake of ^11C was expressed as the %ID/g. […] Each blocker was dissolved in 1N HCl to 40 mg/ml and diluted up to 0.4 mg/ml with saline. The co-injected dose was 1 mg/kg. In the control mice the same amount of 0.01 N HCl in saline was co-injected.

In data set [4] the target is heteromeric α4β2 subtypes. Particulars: rat brain membranes; read-out: K i, [^3H]cytisine binding; cited from earlier work.
The test system of the next data set is >75 binding sites. The following applies: 10 µM, exception 5-HT3 receptors; cited from earlier work.
For data set [5], the target named is 5-HT3 receptors. The data set can be described thus: Displacement of [^3H]-BRL 43694 (Granisetron) binding.
Data set [6] has as its system 5-HT3 receptors. Particulars: cited from earlier work.
The conditions of data set [7]: cited from earlier work.
In data set [8] the target is α4β2. Particulars: read-out: K i α4β2; cited from earlier work.
The target in data set [9] is α4β2. The following applies: cited from earlier work.
Data set [10] addresses α7 nAChRs. The following applies: read-out: KD for α-bungarotoxin; cited from earlier work.

Values joined by “and” are separate entries in the source; they are usually repeats but may differ in a detail not shown here. Identical values can stand only once. Like-named read-outs stand apart in the source and are kept apart here.

Chain of α7 nAChRs (Mus musculus, UniProt P49582) (P49582 23-502): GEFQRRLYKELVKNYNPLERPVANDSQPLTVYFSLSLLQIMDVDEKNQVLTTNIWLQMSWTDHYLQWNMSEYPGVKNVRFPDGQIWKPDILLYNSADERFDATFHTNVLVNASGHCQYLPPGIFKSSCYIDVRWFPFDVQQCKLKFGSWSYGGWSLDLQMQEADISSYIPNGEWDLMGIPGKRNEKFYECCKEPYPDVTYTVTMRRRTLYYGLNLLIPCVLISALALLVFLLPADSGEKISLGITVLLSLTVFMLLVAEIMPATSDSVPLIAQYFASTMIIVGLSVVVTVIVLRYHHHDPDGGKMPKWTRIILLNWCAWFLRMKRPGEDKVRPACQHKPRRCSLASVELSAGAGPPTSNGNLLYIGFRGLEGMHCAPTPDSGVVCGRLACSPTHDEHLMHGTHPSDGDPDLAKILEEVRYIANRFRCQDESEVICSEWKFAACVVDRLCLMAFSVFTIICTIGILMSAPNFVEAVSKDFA
Chain of α7 nAChRs (Macaca mulatta, UniProt Q866A2) (Q866A2 23-502): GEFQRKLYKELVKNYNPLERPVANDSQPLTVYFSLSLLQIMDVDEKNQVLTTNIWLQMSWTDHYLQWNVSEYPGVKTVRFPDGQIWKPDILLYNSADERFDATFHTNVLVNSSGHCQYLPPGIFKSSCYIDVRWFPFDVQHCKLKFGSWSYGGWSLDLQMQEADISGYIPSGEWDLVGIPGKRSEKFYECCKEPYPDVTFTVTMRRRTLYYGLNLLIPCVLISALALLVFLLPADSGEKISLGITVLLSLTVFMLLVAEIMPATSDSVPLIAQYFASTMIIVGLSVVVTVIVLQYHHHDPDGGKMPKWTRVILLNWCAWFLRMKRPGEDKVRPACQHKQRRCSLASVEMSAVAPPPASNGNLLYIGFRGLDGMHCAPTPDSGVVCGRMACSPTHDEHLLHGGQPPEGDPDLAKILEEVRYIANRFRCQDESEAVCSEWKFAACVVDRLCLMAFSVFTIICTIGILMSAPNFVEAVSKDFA

For `[11CH3]N1CC2CN(c3ccc4oc5ccccc5c(=O)c4c3)CC2C1` (stereo not drawn) [[^11C]A-844606, 2-(5-[^11C]Methyl-hexahydro-pyrrolo[3,4-c]pyrrol-2-yl)-xanthene-9-one], the “time of peak radioactivity in the brain” value in data set [1] is given as 30 min. On α7 nAChRs [2] (male), the “V T Baseline, Cerebellum” value is 95.9 mL/g; the “V T Baseline, Frontal cortex” value was found to be 132.2 mL/g; the “V T Baseline, Hippocampus” value was 123.1 mL/g; the “V T Baseline, Thalamus” value was found to be 141.5 mL/g. Moreover, at α7 nAChRs [2] (male), the “V T SSR180711, Cerebellum” value was 52.8 mL/g; the “V T SSR180711, Frontal cortex” value amounted to 65.3 mL/g; the “V T SSR180711, Hippocampus” value came out at 57.5 mL/g; the “V T SSR180711, Thalamus” value was 69.3 mL/g. Besides, on α7 nAChRs [2] (male), the “V T, cerebellum (mean ± SD)” value is recorded as 95.2±32.8; the “V T, cerebellum (range)” value is 62.1–127.7; the “V T, frontal cortex (mean ± SD)” value amounted to 130.9±40.4; the “V T, frontal cortex (range)” value is given as 89.8–170.6. Moreover, on α7 nAChRs [2] (male), the “V T, hippocampus (mean ± SD)” value is recorded as 118.5±33.6; the “V T, hippocampus (range)” value is given as 82.9–149.6; the “V T, thalamus (mean ± SD)” value was 138.6±42.3; the “V T, thalamus (range)” value is recorded as 95.0–179.4. Moreover, on α7 nAChRs [2] (male), the “time at which brain radioactivity reached a plateau” value is 40 to 60 min and the “time at which radioactivity in the cerebellum reached a plateau” value worked out at 40 min. On α7 nAChRs [2], the “% decrease of V T, Cerebellum” value came out at 45.0%; the “% decrease of V T, Frontal cortex” value was found to be 50.6%; the “% decrease of V T, Hippocampus” value turned out to be 53.3%; the “% decrease of V T, Thalamus” value amounted to 51.0%. The “decrease of V T by pretreatment with SSR180711” value at α7 nAChRs [2] is ~50%. For the same molecule, on α7 nAChRs [3], the “% Injected dose/g tissue, Blood” value was determined as 0.57±0.11 % Injected dose/g tissue; the “% Injected dose/g tissue, Cerebellum” value was found to be 4.54±0.63 % Injected dose/g tissue; the “% Injected dose/g tissue, Cerebral cortex” value is 7.63±0.98 % Injected dose/g tissue; the “% Injected dose/g tissue, Hippocampus” value is recorded as 4.46±0.90 % Injected dose/g tissue. Further, on α7 nAChRs [3], the “% Injected dose/g tissue, Hypothalamus” value was 4.21±1.55 % Injected dose/g tissue; the “% Injected dose/g tissue, Medulla oblongata” value was 5.25±0.95 % Injected dose/g tissue; the “% Injected dose/g tissue, Midbrain” value was found to be 5.43±0.75 % Injected dose/g tissue; the “% Injected dose/g tissue, Striatum” value is 5.01±2.00 % Injected dose/g tissue. For the same molecule, at α7 nAChRs [3], the “% Injected dose/g tissue, Whole brain” value is listed as 5.83±0.56 % Injected dose/g tissue.

`CN1CC2CN(c3ccc(-c4ccccc4)nn3)CC2C1` (stereo not drawn) [A-582941, 2-methyl-5-[6-phenylpyridazine-3-yl]octahydropyrrolo[3,4-c]pyrrole]: the Ki in data set [4] is > 100000 nM. The “displacement of binding of >75 binding sites” value with >75 binding sites is “did not show significant displacement”. For the same molecule, the “K i for 5-HT3 receptors relative to that for α7 nAChRs” value at 5-HT3 receptors [5] was ~15 fold. Also, at α7 nAChRs [3], the “% Injected dose/g tissue, Blood” value turned out to be 0.61±0.07 % Injected dose/g tissue; the “% Injected dose/g tissue, Cerebellum” value amounted to 5.17±0.97 % Injected dose/g tissue; the “% Injected dose/g tissue, Cerebral cortex” value is recorded as 8.38±1.22 % Injected dose/g tissue; the “% Injected dose/g tissue, Hippocampus” value was found to be 6.48±1.31 % Injected dose/g tissue. Further, on α7 nAChRs [3], the “% Injected dose/g tissue, Hypothalamus” value turned out to be 4.76±1.17 % Injected dose/g tissue; the “% Injected dose/g tissue, Medulla oblongata” value came out at 5.58±1.26 % Injected dose/g tissue; the “% Injected dose/g tissue, Midbrain” value is 5.80±1.46 % Injected dose/g tissue; the “% Injected dose/g tissue, Striatum” value was 6.81±1.05 % Injected dose/g tissue. In addition, on α7 nAChRs [3], the “% Injected dose/g tissue, Whole brain” value is 6.71±1.09 % Injected dose/g tissue. Besides, the “displacement of [^3H]-BRL 43694 (Granisetron) binding” value in the data set on 5-HT3 receptors [6] (at 10 µM) was > 85%. Also, at 5-HT3 receptors [6] (read-out: K i for 5-HT3 receptors), the Ki was 154 nM. Further, in data set [7], the “clog P” value is reported as 2.3; the “pKa, N-methylated tertiary amine” value was 8.75; the “pKa, aminopyridazine” value is reported as 4.44. Further, the “log D at pH 7.4” value in [7] (pH 7.4) is 1.0.

Turning to `c1cncc(OC[C@@H]2CCN2)c1` [A-85380, 3-(2(S)-azetidynilmethoxy)pyridine], at α4β2 [8], the Ki was 0.05 nM. At α7 nAChRs [3], the “% Injected dose/g tissue, Blood” value is 0.85±0.06 % Injected dose/g tissue and 0.54±0.12 % Injected dose/g tissue; the “% Injected dose/g tissue, Cerebellum” value is 3.76±0.50 % Injected dose/g tissue and 6.22±1.26 % Injected dose/g tissue; the “% Injected dose/g tissue, Cerebral cortex” value was 4.53±0.61 % Injected dose/g tissue and 7.57±1.48 % Injected dose/g tissue; the “% Injected dose/g tissue, Hippocampus” value is 3.92±0.54 % Injected dose/g tissue and 5.58±1.26 % Injected dose/g tissue. At α7 nAChRs [3], the “% Injected dose/g tissue, Hypothalamus” value is 3.97±0.65 % Injected dose/g tissue and 5.00±0.96 % Injected dose/g tissue; the “% Injected dose/g tissue, Medulla oblongata” value was 3.99±0.49 % Injected dose/g tissue and 5.46±1.15 % Injected dose/g tissue; the “% Injected dose/g tissue, Midbrain” value was 4.52±0.68 % Injected dose/g tissue and 6.84±1.71 % Injected dose/g tissue; the “% Injected dose/g tissue, Striatum” value was 4.33±0.75 % Injected dose/g tissue and 6.47±1.38 % Injected dose/g tissue. Moreover, the “% Injected dose/g tissue, Whole brain” value on α7 nAChRs [3] is 4.26±0.57 % Injected dose/g tissue and 6.64±1.33 % Injected dose/g tissue. Also, the Ki on α4β2 [9] (read-out: K i α4β2) is 0.04 nM.

As to `O=C(Oc1ccc(Br)cc1)N1CCN2CCC1CC2` [SSR180711], on α7 nAChRs [3], the “% Injected dose/g tissue, Cerebellum” value is 3.32±0.25 % Injected dose/g tissue and 5.10±0.69 % Injected dose/g tissue; the “% Injected dose/g tissue, Cerebral cortex” value is 5.02±0.46 % Injected dose/g tissue and 8.43±1.07 % Injected dose/g tissue; the “% Injected dose/g tissue, Hippocampus” value is 4.63±0.51 % Injected dose/g tissue and 6.26±0.64 % Injected dose/g tissue; the “% Injected dose/g tissue, Hypothalamus” value was 3.49±0.36 % Injected dose/g tissue and 4.74±0.70 % Injected dose/g tissue. On α7 nAChRs [3], the “% Injected dose/g tissue, Medulla oblongata” value was 3.15±0.14 % Injected dose/g tissue and 5.35±0.33 % Injected dose/g tissue; the “% Injected dose/g tissue, Midbrain” value is 3.91±0.45 % Injected dose/g tissue and 6.69±0.79 % Injected dose/g tissue; the “% Injected dose/g tissue, Striatum” value is 4.19±1.04 % Injected dose/g tissue and 7.32±1.84 % Injected dose/g tissue; the “% Injected dose/g tissue, Whole brain” value is 4.21±0.39 % Injected dose/g tissue and 6.82±0.64 % Injected dose/g tissue. For the same molecule, the IC50 with α4β2 [9] (human receptor) is > 50000 nM.

In the case of α-bungarotoxin, the Kd on α7 nAChRs [10] was 1.67 nM.

In general, log D refers to lipophilicity at a set pH, counting ionised and neutral species. In general, IC50 refers to the concentration that inhibits the measured activity by half. As a reminder, the Kd is the free concentration of one partner at which half of the binding sites on the other are occupied at equilibrium, for simple one-to-one binding.
